Consider 24 compounds from patent US20240116892A1, “HETEROCYCLIC AMIDE AND UREA COMPOUNDS AS JAK2 INHIBITORS” (Ajax Therapeutics, Inc., priority 2022, published 2024).

For orientation: Kd means the concentration at which binding is half-saturated. Higher therefore signals lower affinity.

The experiment concerns the target JAK2 (JH1 domain-catalytic, Y1007F, Y1008F) kinase (Homo sapiens (Human), UniProt O60674, Y1007F/Y1008F). Put plainly: JAK2 JH1 Domain Binding Assay. To be noted: qPCR readout. In outline: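 JH1 catalytic domain (Y1007F/Y1008F) expressed as NFkB DNA-binding-domain fusion in HEK293 cells, DNA-tagged. Competition with immobilized biotinylated ligand on streptavidin beads, 1 h at RT in PBS/Tween/BSA/DTT; bound kinase eluted with free ligand and quantified by qPCR.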

JAK2 (JH1 domain-catalytic, Y1007F, Y1008F) kinase, sequence (O60674 849-1124 Y1007F/Y1008F): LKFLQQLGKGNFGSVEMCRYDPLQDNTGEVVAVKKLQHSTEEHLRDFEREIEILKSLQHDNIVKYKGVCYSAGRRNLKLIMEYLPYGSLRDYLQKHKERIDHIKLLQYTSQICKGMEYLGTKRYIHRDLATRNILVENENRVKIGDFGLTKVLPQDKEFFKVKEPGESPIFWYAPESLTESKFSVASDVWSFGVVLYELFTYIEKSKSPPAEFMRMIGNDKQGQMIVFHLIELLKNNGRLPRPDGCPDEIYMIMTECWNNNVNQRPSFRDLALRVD

The compound `Cn1cc(C(F)(F)F)cc(NC(=O)N2CCCC23CCN(c2cnc4[nH]ccc4n2)CC3)c1=O` [Example I-47, N-(1-methyl-2-oxo-5-(trifluoromethyl)-1,2-dihydropyridin-3-yl)-8-(5H-pyrrolo[2,3-b]pyrazin-2-yl)-1,8-diazaspiro[4.5]decane-1-carboxamide] gave a Kd of 10 to 50 nM. Under `CN(C(=O)Nc1cc(C(F)(F)F)cn(C)c1=O)C1CCN(c2cnc3[nH]n(C)c(=O)c3c2)CC1` [Example I-86, 1-methyl-3-(1-methyl-2-oxo-5-(trifluoromethyl)-1,2-dihydropyridin-3-yl)-1-(1-(2-methyl-3-oxo-2,3-dihydro-1H-pyrazolo[3,4-b]pyridin-5-yl)piperidin-4-yl)urea] stands < 10 nM; under `CN(C(=O)Nc1cc(C(F)(F)F)cn(C)c1=O)[C@@H]1CCN(c2cnc3[nH]ncc3c2)CC1(C)C` (single isomer, unassigned) [Example I-45-b], 10 to 50 nM. In the case of `C[C@H]1CN(c2cnc3[nH]ccc3n2)CC[C@H]1N(C)C(=O)Nc1cc(C(F)(F)F)cn(C)c1=O` [Example I-58-b, 1-methyl-1-((3S,4R)-3-methyl-1-(5H-pyrrolo[2,3-b]pyrazin-2-yl)piperidin-4-yl)-3-(1-methyl-2-oxo-5-(trifluoromethyl)-1,2-dihydropyridin-3-yl)urea], the Kd was < 10 nM. Under `CN(C(=O)Nc1cc(C(F)(F)F)cn(C)c1=O)[C@H]1C[C@H]2C[C@@H]1CN2c1cnc(NC(=O)C2CC2)cn1` (single isomer, unassigned) [Example I-44-b] stands 10 to 50 nM; under `CN(C(=O)Nc1cc(C(F)(F)F)cn(C)c1=O)[C@H]1CCN(c2cnc3[nH]ncc3c2)C[C@@H]1F` (stereo in doubt) [Example I-61-a, 1-((3S,4S)-3-fluoro-1-(1H-pyrazolo[3,4-b]pyridin-5-yl)piperidin-4-yl)-1-methyl-3-(1-methyl-2-oxo-5-(trifluoromethyl)-1,2-dihydropyridin-3-yl)urea], < 10 nM. Turning to `CNc1n[nH]c2ncc(N3CC[C@@H](N(C)C(=O)Nc4cc(C(F)(F)F)cn(C)c4=O)[C@@H](F)C3)cc12` [Example I-97-a, 1-((3S,4R)-3-fluoro-1-(3-(methylamino)-1H-pyrazolo[3,4-b]pyridin-5-yl)piperidin-4-yl)-1-methyl-3-(1-methyl-2-oxo-5-(trifluoromethyl)-1,2-dihydropyridin-3-yl)urea], the Kd is < 10 nM. Under `CN(C(=O)Nc1cncc(C(F)(F)F)c1)[C@@H]1CCN(c2cnc3[nH]ncc3c2)CC1(F)F.CN(C(=O)Nc1cncc(C(F)(F)F)c1)[C@H]1CCN(c2cnc3[nH]ncc3c2)CC1(F)F` (mixture of isomers) [Example I-147-a, (R)-1-(3,3-difluoro-1-(1H-pyrazolo[3,4-b]pyridin-5-yl)piperidin-4-yl)-1-methyl-3-(5-(trifluoromethyl)pyridin-3-yl)urea and (S)-1-(3,3-difluoro-1-(1H-pyrazolo[3,4-b]pyridin-5-yl)piperidin-4-yl)-1-methyl-3-(5-(trifluoromethyl)pyridin-3-yl)urea] stands < 10 nM; under `Cn1cc(C(F)(F)F)cc(NC(=O)N2CCO[C@@H]3CN(c4cnc5[nH]ccc5n4)CC[C@H]32)c1=O` [Example I-128-b, (4aR,8aR)-N-(1-methyl-2-oxo-5-(trifluoromethyl)-1,2-dihydropyridin-3-yl)-6-(5H-pyrrolo[2,3-b]pyrazin-2-yl)octahydro-1H-pyrido[3,4-b][1,4]oxazine-1-carboxamide], < 10 nM. Under `C[C@@H]1CN(c2cnc3[nH]ccc3n2)CC[C@@H]1N(C)C(=O)Nc1cc(C(F)(F)F)cn(C)c1=O` [Example I-58-a, 1-methyl-1-((3R,4S)-3-methyl-1-(5H-pyrrolo[2,3-b]pyrazin-2-yl)piperidin-4-yl)-3-(1-methyl-2-oxo-5-(trifluoromethyl)-1,2-dihydropyridin-3-yl)urea] stands < 10 nM; under `CN(C(=O)Nc1cc(C(F)(F)F)cn(C)c1=O)C1CCN(c2cnc(NC(=O)C3CC3)cn2)CC1` [Example I-18, N-(5-(4-(1-methyl-3-(1-methyl-2-oxo-5-(trifluoromethyl)-1,2-dihydropyridin-3-yl)ureido)piperidin-1-yl)pyrazin-2-yl)cyclopropanecarboxamide], < 10 nM. To `C[C@@H]1C[C@H](N(C)C(=O)Nc2cc(C(C)(C)C)n([C@H]3C[C@H](O)C3)n2)CCN1c1cnc2[nH]ncc2c1` [Example I-135-a, 3-(5-(tert-butyl)-1-((1r,3R)-3-hydroxycyclobutyl)-1H-pyrazol-3-yl)-1-methyl-1-((2R,4R)-2-methyl-1-(1H-pyrazolo[3,4-b]pyridin-5-yl)piperidin-4-yl)urea] belongs 10 to 50 nM; to `COCCOc1n[nH]c2ncc(N3CC[C@@H](N(C)C(=O)Nc4cc(C(F)(F)F)cn(C)c4=O)C[C@H]3C)cc12` [Example I-132-b, 1-((2R,4R)-1-(3-(2-methoxyethoxy)-1H-pyrazolo[3,4-b]pyridin-5-yl)-2-methylpiperidin-4-yl)-1-methyl-3-(1-methyl-2-oxo-5-(trifluoromethyl)-1,2-dihydropyridin-3-yl)urea], 10 to 50 nM; to `CC(=O)Nc1cnc(N2CCC(CC(=O)Nc3cc(C(F)(F)F)cn(C)c3=O)CC2)cn1` [Example I-3, 2-(1-(5-acetamidopyrazin-2-yl)piperidin-4-yl)-N-(1-methyl-2-oxo-5-(trifluoromethyl)-1,2-dihydropyridin-3-yl)acetamide], 50 to 1000 nM.

On to `CN(C(=O)Nc1cc(C(F)(F)F)cn(C)c1=O)[C@@H]1CCN(c2cnc3[nH]nc(OC4CCOCC4)c3c2)C[C@@H]1F` [Example I-107-a, 1-((3S,4R)-3-fluoro-1-(3-((tetrahydro-2H-pyran-4-yl)oxy)-1H-pyrazolo[3,4-b]pyridin-5-yl)piperidin-4-yl)-1-methyl-3-(1-methyl-2-oxo-5-(trifluoromethyl)-1,2-dihydropyridin-3-yl)urea], for which the Kd is < 10 nM. To `CN(C(=O)Nc1cc(C(F)(F)F)cn(C)c1=O)C1CCN(c2cnc3cn[nH]c3c2)CC1` [Example I-73, 1-(1-(1H-pyrazolo[4,3-b]pyridin-6-yl)piperidin-4-yl)-1-methyl-3-(1-methyl-2-oxo-5-(trifluoromethyl)-1,2-dihydropyridin-3-yl)urea] belongs < 10 nM; to `CN(C(=O)Nc1cc(C(F)(F)F)cn(C)c1=O)[C@H]1CCN(c2cnc3[nH]n(C)c(=O)c3c2)CC1F` (stereo in doubt) [Example I-90-a, 1-((3R,4S)-3-fluoro-1-(2-methyl-3-oxo-2,3-dihydro-1H-pyrazolo[3,4-b]pyridin-5-yl)piperidin-4-yl)-1-methyl-3-(1-methyl-2-oxo-5-(trifluoromethyl)-1,2-dihydropyridin-3-yl)urea], 10 to 50 nM; to `CN(C(=O)Nc1cc(C(F)(F)F)cn(C)c1=O)C1CCN(c2cnc3[nH]ccc3n2)CC1(C)C` (single isomer, unassigned) [Example I-49-a, (R)- or (S)-1-(3,3-dimethyl-1-(5H-pyrrolo[2,3-b]pyrazin-2-yl)piperidin-4-yl)-1-methyl-3-(1-methyl-2-oxo-5-(trifluoromethyl)-1,2-dihydropyridin-3-yl)urea], < 10 nM. To `CN(C(=O)Nc1cc(C(F)(F)F)ccn1)[C@@H]1CCN(c2cnc3[nH]ncc3c2)C[C@H]1F` [Example I-175, 1-((3R,4R)-3-fluoro-1-(1H-pyrazolo[3,4-b]pyridin-5-yl)piperidin-4-yl)-1-methyl-3-(4-(trifluoromethyl)pyridin-2-yl)urea] belongs < 10 nM; to `COc1n[nH]c2ncc(N3CC[C@@H](N(C)C(=O)Nc4cc(C(F)(F)F)cn(C)c4=O)[C@@H](F)C3)cc12` [Example I-87-a, 1-((3S,4R)-3-fluoro-1-(3-methoxy-1H-pyrazolo[3,4-b]pyridin-5-yl)piperidin-4-yl)-1-methyl-3-(1-methyl-2-oxo-5-(trifluoromethyl)-1,2-dihydropyridin-3-yl)urea], < 10 nM. Under `CN(C(=O)Nc1cc(C(F)(F)F)cn(C)c1=O)[C@@H]1CC=C(c2cnc3[nH]cc(N4CCOCC4)c3n2)CC1.CN(C(=O)Nc1cc(C(F)(F)F)cn(C)c1=O)[C@H]1CC=C(c2cnc3[nH]cc(N4CCOCC4)c3n2)CC1` (mixture of isomers) [Example I-165-a, (S)-1-methyl-3-(1-methyl-2-oxo-5-(trifluoromethyl)-1,2-dihydropyridin-3-yl)-1-(4-(7-morpholino-5H-pyrrolo[2,3-b]pyrazin-2-yl)cyclohex-3-en-1-yl)urea and (R)-1-methyl-3-(1-methyl-2-oxo-5-(trifluoromethyl)-1,2-dihydropyridin-3-yl)-1-(4-(7-morpholino-5H-pyrrolo[2,3-b]pyrazin-2-yl)cyclohex-3-en-1-yl)urea] stands < 10 nM; under `C[C@H]1C[C@@H](N(C)C(=O)Nc2cc(C(F)(F)F)cn(C)c2=O)CCN1c1cnc2[nH]ncc2c1` [Example I-105-a, 1-methyl-1-((2S,4S)-2-methyl-1-(1H-pyrazolo[3,4-b]pyridin-5-yl)piperidin-4-yl)-3-(1-methyl-2-oxo-5-(trifluoromethyl)-1,2-dihydropyridin-3-yl)urea], < 10 nM. `CO[C@H]1CN(c2cnc3[nH]c(C)cc3n2)CC[C@@H]1N(C)C(=O)Nc1cc(C(F)(F)F)cn(C)c1=O` [Example I-117-b, 1-((3S,4S)-3-methoxy-1-(6-methyl-5H-pyrrolo[2,3-b]pyrazin-2-yl)piperidin-4-yl)-1-methyl-3-(1-methyl-2-oxo-5-(trifluoromethyl)-1,2-dihydropyridin-3-yl)urea] gave a Kd of 50 to 1000 nM. Take `CO[C@H]1C[C@H](n2[nH]c3ncc(N4CCC(N(C)C(=O)Nc5cc(C(F)(F)F)cn(C)c5=O)CC4)cc3c2=O)C1` [Example I-119, 1-(1-(2-((1r,3r)-3-methoxycyclobutyl)-3-oxo-2,3-dihydro-1H-pyrazolo[3,4-b]pyridin-5-yl)piperidin-4-yl)-1-methyl-3-(1-methyl-2-oxo-5-(trifluoromethyl)-1,2-dihydropyridin-3-yl)urea]: the Kd was in the range of 1000 to 5000 nM.
